Test results published in patent US7734426B2 (priority 1999, dated 2010).
Entries after “also recorded” stand apart in the source; their conditions may differ. Where no end group is shown, it is not given here.

system: NG-108-15 Cells; type: cell-based; settings: not given

Compound | Effect | Onset Time | inhibit repetitive firing | effect on the AP
N=C(N)NC(=O)c1nc(Cl)c(N)nc1N [amiloride] | L-type Ca^2+ channel | <60 s | amiloride* | –
C=C(C=O)C[C@@H]1C[C@H](O)[C@]2(C)O[C@@H]3C[C@@H]4O[C@@H]5C[C@]6(C)O[C@]7(C)CC[C@@H]8O[C@@H]9C[C@]%10(C)O[C@@H]%11C(C)=CC(=O)O[C@H]%11C[C@H]%10O[C@H]9C[C@@H](C)[C@H]8O[C@H]7C[C@H]6O[C@H]5C/C=C\[C@H]4O[C@H]3C[C@H]2O1 [brevetoxin] | Na^+ channel | <60 s | brevetoxin* | –
C[N+](C)(C)CCOC(N)=O [carbachol] | muscarinic receptor | <60 s | carbachol* | –
COC(=O)C1=C(C)NC(C)=C(C(=O)OC)C1c1ccccc1[N+](=O)[O-] [nifedipine] | – | – | nifedipine* | –
C[C@@H]1O[C@@H](O[C@H]2C[C@@H](O)[C@]3(CO)[C@H]4[C@H](O)C[C@]5(C)[C@@H](C6=CC(=O)OC6)CC[C@]5(O)[C@@H]4CC[C@]3(O)C2)[C@H](O)[C@H](O)[C@H]1O [ouabain] | Na^+—Ca^2+ pump; also recorded: inhibition | <60 s | ouabain* | –
C=C[C@H]1C[N@@]2CC[C@H]1C[C@H]2[C@H](O)c1ccnc2ccc(OC)cc12 [quinine] | non-specific K^+ channel | <60 s | quinine* | –
NC1=N[C@H](O)[C@H]2[C@H]3O[C@]4(O)O[C@@H]([C@@H](O)[C@@]2(N1)[C@@H]4O)[C@]3(O)CO [tetrodotoxin] | Na^+ channel | <60 s | tetrodotoxin* | affected the AP
COc1ccc(CCN(C)CCCC(C#N)(c2ccc(OC)c(OC)c2)C(C)C)cc1OC (stereo not drawn) [verapamil] | L-type Ca^2+ channel | <60 s | verapamil* | –
Charybdotoxin | Kca “BK”-type channel | <60 s | Charybdotoxin* | –

system: CNS stem cells; settings: cited from earlier work

Compound | neuronal differentiation, % of the cells
platelet-derived growth factor [PDGF] | 90%

system: CA1 region of hippocampal slices; settings: cited from earlier work

Compound | effect on synaptic transmission
O=CC[C@@H](O)[C@H](O)[C@H](O)CO [2-DG, 2-deoxy-D-glucose] | reversibly suppresses synaptic transmission

system: hippocampal interneurons; settings: cited from earlier work

Compound | effect on action potential frequency / currents
CCK-8S (DYMGWMDF; not fully specified; UniProt P06307 96-103, looked up) | increased action potential frequency or generated inward currents

system: CA1 pyramidal cells in hippocampal slices; settings: cited from earlier work

Compound | changes in the action potential
C[N+](C)(C)CCOC(N)=O [carbachol] | several reversible changes in the action potential
